Source: the supplement of paper PMC6045584
± gives the standard deviation of the averaged measurements.

Legend:
PLX-4720 = compound: CCCS(=O)(=O)Nc1ccc(F)c(C(=O)c2c[nH]c3ncc(Cl)cc23)c1F [PLX-4720]; test: surviving fraction relative to DMSO-only wells; higher = less growth inhibition; conditions: exposure time: 5 days
Summary of the method: (§1)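 Tumour cell lines were grown to log phase and seeded at 250–500 cells per well in 384-well plates. They were exposed continuously to inhibitors at 0.5, 1, 5, 10, 50, 100, 500 and 1000 nM for five days, beginning 24 hours after seeding. Surviving fraction is CellTiter-Glo luminescence normalised to the median of DMSO-only wells.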

[1] = compound: O=C(NOCC1CC1)c1ccc(F)c(F)c1Nc1ccc(I)cc1Cl; test: as above; conditions: exposure time: 5 days
Summary of the method: as §1

Test System	surviving fraction (PLX-4720; 0.5 nM)	surviving fraction (PLX-4720; 1 nM)	surviving fraction (PLX-4720; 5 nM)	surviving fraction (PLX-4720; 10 nM)	surviving fraction (PLX-4720; 50 nM)	surviving fraction (PLX-4720; 100 nM)	surviving fraction (PLX-4720; 500 nM)	surviving fraction (PLX-4720; 1000 nM)	surviving fraction ([1]; 0.5 nM)	surviving fraction ([1]; 1 nM)	surviving fraction ([1]; 5 nM)	surviving fraction ([1]; 10 nM)	surviving fraction ([1]; 50 nM)	surviving fraction ([1]; 100 nM)	surviving fraction ([1]; 500 nM)	surviving fraction ([1]; 1000 nM)
SG27 HEADNECK	0.659 ± 0.094	0.877 ± 0.1	0.962 ± 0.077	0.965 ± 0.12	0.788 ± 0.12	0.942 ± 0.11	0.928 ± 0.1	0.955 ± 0.1	0.918 ± 0.036	1.02 ± 0.075	0.973 ± 0.11	0.986 ± 0.075	1.02 ± 0.22	0.988 ± 0.017	1.13 ± 0.12	1.24 ± 0.19
SG28 HEADNECK	0.279 ± 0.033	0.796 ± 0.12	0.718 ± 0.057	0.849 ± 0.082	0.513 ± 0.014	0.964 ± 0.027	0.818 ± 0.11	0.959 ± 0.036	0.871 ± 0.049	1.03 ± 0.061	0.836 ± 0.024	0.932 ± 0.099	0.801 ± 0.06	0.781 ± 0.065	0.633 ± 0.023	0.616 ± 0.017
SG31 HEADNECK	0.492 ± 0.037	0.775 ± 0.056	0.765 ± 0.053	0.96 ± 0.18	0.642 ± 0.068	0.843 ± 0.048	0.963 ± 0.025	1.06 ± 0.12	1.02 ± 0.087	0.977 ± 0.097	0.951 ± 0.14	1.06 ± 0.18	0.778 ± 0.12	0.756 ± 0.11	0.575 ± 0.032	0.547 ± 0.088
SG32 HEADNECK	0.341 ± 0.11	0.617 ± 0.029	0.494 ± 0.06	0.742 ± 0.094	0.366 ± 0.042	0.804 ± 0.079	0.623 ± 0.16	0.821 ± 0.035	0.546 ± 0.12	0.858 ± 0.042	0.883 ± 0.22	1.03 ± 0.049	0.701 ± 0.085	0.805 ± 0.065	0.751 ± 0.059	0.818 ± 0.079
SG43 HEADNECK	1.26 ± 0.34	1.19 ± 0.013	1.09 ± 0.053	1 ± 0.1	1.13 ± 0.13	1.27 ± 0.15	1.65 ± 0.22	1.7 ± 0.078	1.05 ± 0.079	0.969 ± 0.011	0.853 ± 0.17	0.676 ± 0.16	0.567 ± 0.1	0.521 ± 0.06	0.387 ± 0.07	0.333 ± 0.064
SIHA CERVIX	0.908 ± 0.016	0.877 ± 0.034	0.909 ± 0.041	0.995 ± 0.034	0.993 ± 0.022	1.07 ± 0.068	1.06 ± 0.041	1.09 ± 0.055	0.754 ± 0.016	0.8147 ± 0.0075	0.955 ± 0.058	0.923 ± 0.027	0.899 ± 0.018	0.873 ± 0.06	0.709 ± 0.042	0.765 ± 0.067
SJSA1 BONE	0.89 ± 0.025	0.914 ± 0.026	0.904 ± 0.028	0.948 ± 0.025	1.03 ± 0.033	1.03 ± 0.062	0.998 ± 0.059	0.955 ± 0.074	1.05 ± 0.036	1.06 ± 0.035	1.119 ± 0.0046	1.11 ± 0.013	0.968 ± 0.025	0.925 ± 0.027	0.742 ± 0.028	0.591 ± 0.046
SKBR3 BREAST	0.838 ± 0.027	0.81 ± 0.098	0.819 ± 0.14	0.813 ± 0.15	1.05 ± 0.12	1.01 ± 0.15	0.986 ± 0.17	0.892 ± 0.14	1.12 ± 0.17	1.1 ± 0.13	1.11 ± 0.07	1.1 ± 0.26	1.08 ± 0.19	1.05 ± 0.14	1.06 ± 0.14	1.05 ± 0.13
SNU475 LIVER	0.358 ± 0.028	0.806 ± 0.029	0.674 ± 0.01	0.808 ± 0.02	0.392 ± 0.029	0.919 ± 0.021	0.839 ± 0.024	1 ± 0.055	0.432 ± 0.042	0.908 ± 0.038	0.802 ± 0.022	0.941 ± 0.018	0.439 ± 0.015	0.883 ± 0.013	0.676 ± 0.018	0.741 ± 0.039
SUM44 BREAST	0.9 ± 0.025	0.868 ± 0.058	0.932 ± 0.011	0.969 ± 0.022	1.07 ± 0.072	1.02 ± 0.052	0.946 ± 0.045	0.92 ± 0.03	0.951 ± 0.042	0.954 ± 0.062	1.04 ± 0.013	1.05 ± 0.032	1.07 ± 0.064	1.03 ± 0.043	1.02 ± 0.082	1.03 ± 0.047
